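Grown in 96-well plates, cells were treated for 48 hours with each compound at five concentrations. Insufficient inhibition: endpoint recorded as highest concentration tested. GI50 is the concentration that inhibits growth by half. TGI: concentration producing complete growth inhibition.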
Key:
Assay in all cases: growth of human tumour cells (NCI), 48 h
NCI-H522 lung = tested on: NCI-H522 lung
RXF 393 renal = tested on: RXF 393 renal
HCT-15 colon = tested on: HCT-15 colon
SF-295 CNS = tested on: SF-295 CNS
OVCAR-4 ovarian = tested on: OVCAR-4 ovarian
TK-10 renal = tested on: TK-10 renal
SK-MEL-2 melanoma = tested on: SK-MEL-2 melanoma
786-0 renal = tested on: 786-0 renal
SF-268 CNS = tested on: SF-268 CNS
EKVX NSCLC = tested on: EKVX NSCLC

SMILES	GI50 (NCI-H522 lung)	TGI (NCI-H522 lung)	GI50 (RXF 393 renal)	TGI (RXF 393 renal)	GI50 (HCT-15 colon)	TGI (HCT-15 colon)	GI50 (SF-295 CNS)	TGI (SF-295 CNS)	GI50 (OVCAR-4 ovarian)	TGI (OVCAR-4 ovarian)	GI50 (TK-10 renal)	TGI (TK-10 renal)	GI50 (SK-MEL-2 melanoma)	TGI (SK-MEL-2 melanoma)	GI50 (786-0 renal)	TGI (786-0 renal)	GI50 (SF-268 CNS)	TGI (SF-268 CNS)	GI50 (EKVX NSCLC)	TGI (EKVX NSCLC)
O=S(=O)(Nc1ccc2ccccc2c1)c1ccc(-c2cnc(C3CC3)o2)cc1	0.766 µM	14.5 µM	0.573 µM	3.92 µM	0.557 µM	19.2 µM	0.452 µM	5.46 µM	3.22 µM	79.9 µM	5.81 µM	> 100 µM	1.43 µM	20.6 µM	3.1 µM	18.7 µM	3.44 µM	24.5 µM	2.76 µM	59.9 µM
NNC(=S)Nc1cccc(Cl)c1	–	> 100 µM	–	> 100 µM	–	> 100 µM	–	> 100 µM	–	> 100 µM	–	> 100 µM	–	> 100 µM	–	> 100 µM	–	> 100 µM	–	> 100 µM
O=C(Cn1c(C(=O)c2ccccc2)nc2ccccc21)c1ccc(F)cc1	5.92 µM	> 62.9 µM	7.29 µM	> 56.9 µM	3.56 µM	> 100 µM	9.44 µM	> 100 µM	24.6 µM	> 100 µM	14.2 µM	> 100 µM	17.4 µM	> 74 µM	20.8 µM	> 100 µM	19.6 µM	> 100 µM	21.1 µM	> 100 µM
COc1cc2c(cc1OC)c1c(OC)c(OC)cc3c1c1c2sc(=S)n1CC3	–	34.6 µM	–	> 100 µM	–	> 100 µM	–	> 100 µM	–	> 100 µM	–	> 100 µM	–	> 100 µM	–	35.1 µM	–	> 100 µM	–	> 100 µM
CC(=O)NC(CCCCN(Cc1ccccc1)C(=O)N(CCCl)N=O)C(=O)NCc1ccccc1 (stereo not given)	–	53.8 µM	–	51.3 µM	–	> 100 µM	–	43.4 µM	–	> 100 µM	–	73.9 µM	–	62.2 µM	–	24.9 µM	–	40.8 µM	–	97.9 µM
CC(=O)O/N=C(Cl)/C(Cl)=N/OC(C)=O	–	> 100 µM	–	> 100 µM	–	> 100 µM	–	> 100 µM	–	> 100 µM	–	> 100 µM	–	> 100 µM	–	> 100 µM	–	> 100 µM	–	> 100 µM
CCOC(=O)NC(=O)c1cn(CCN2CCNCC2)c(=O)[nH]c1=O	–	> 100 µM	–	> 100 µM	–	> 100 µM	–	> 100 µM	–	> 100 µM	–	> 100 µM	–	> 100 µM	–	> 100 µM	–	> 100 µM	–	> 100 µM
COc1ccc(CNc2cnc3cc(N)cc(N)c3n2)cc1	17.9 µM	44.1 µM	22.3 µM	49.8 µM	24.6 µM	68.6 µM	21.9 µM	55.9 µM	64.5 µM	> 100 µM	27 µM	64.2 µM	23.9 µM	76.3 µM	17.2 µM	31.6 µM	28.9 µM	81.8 µM	14.4 µM	31.1 µM
CC[C@]12C=CCN3CC[C@@]4(c5ccc(OC)cc5N(C)[C@H]4[C@@](O)(C(=O)OC)[C@@H]1OC(=O)CCC(=O)N[C@H](Cc1c[nH]c4ccccc14)C(=O)OC)[C@@H]32	14.4 µM	34.9 µM	2.22 µM	5.72 µM	3.51 µM	16.7 µM	15.8 µM	39.5 µM	6.5 µM	28.4 µM	13.5 µM	29.4 µM	17 µM	37.3 µM	3.08 µM	> 100 µM	4.88 µM	25.9 µM	10.7 µM	35.7 µM
O=C(NN1C(=O)CSC12CCCC2)C(O)c1ccccc1 (stereo not given)	> 100 µM	> 100 µM	> 100 µM	> 100 µM	> 100 µM	> 100 µM	> 100 µM	> 100 µM	> 100 µM	> 100 µM	> 100 µM	> 100 µM	> 100 µM	> 100 µM	> 100 µM	> 100 µM	> 100 µM	> 100 µM	> 100 µM	> 100 µM
CC(C)CCC(=O)[C@@H](C)[C@H]1[C@@H](OC2OCC(O)C(O)C2NS(C)(=O)=O)C[C@H]2[C@@H]3CC=C4C[C@@H](O)CC[C@]4(C)[C@H]3CC[C@]12C (stereo not given in full)	5.05 µM	12.5 µM	0.178 µM	0.783 µM	2.23 µM	9.44 µM	0.141 µM	0.595 µM	5.12 µM	28.6 µM	6.63 µM	23.5 µM	0.739 µM	2.27 µM	0.181 µM	0.93 µM	1.25 µM	6.99 µM	1.46 µM	8.85 µM
CC1=NN(C(=O)c2ccncc2)C(=O)C1N=Nc1ccc2ccccc2c1 (stereo not given)	–	> 100 µM	–	> 100 µM	–	> 100 µM	–	> 100 µM	–	> 100 µM	–	> 100 µM	–	> 95.2 µM	–	> 100 µM	–	> 100 µM	–	> 100 µM
CC(C)(C)c1ccc(O)c(CN(Cc2cc(C(C)(C)C)ccc2O)C2CCCCC2)c1	–	33.7 µM	–	30 µM	–	36.2 µM	–	34 µM	–	50.3 µM	–	32.4 µM	–	35.4 µM	–	29.8 µM	–	> 53.9 µM	–	> 63.7 µM
CC(=N)N(C)O	–	> 100 µM	–	> 100 µM	–	42.9 µM	–	> 100 µM	–	> 100 µM	–	> 100 µM	–	> 100 µM	–	> 100 µM	–	> 100 µM	–	> 100 µM
N#Cc1cc(NC(=O)c2ccccc2)c(=O)n2c1[nH]c1ccccc12	–	42 µM	–	50.7 µM	–	> 100 µM	–	> 100 µM	–	> 100 µM	–	89.2 µM	–	89.8 µM	–	> 100 µM	–	> 100 µM	–	> 100 µM

Reference: PubChem BioAssay (NCI)
